For 14 compounds, pest or weed control and inhibition of growth results are on record in US20100331348A1, “TROPANE DERIVATIVES USEFUL AS PESTICIDES” (SYNGENTA CROP PROTECTION, INC., priority 2007, published 2010).

One test deals with Heliothis virescens. The test is described as follows: Heliothis virescens (Tobacco budworm) egg test on artificial diet. As to conditions: 96 h, read-out: control of Heliothis virescens.
In a further test the test system is Myzus persicae. The test is described as follows: Myzus persicae (Green peach aphid) sunflower leaf disc test. Particulars: foliar, 144 h, read-out: control of Myzus persicae.
The next test has as its system Septoria tritici. The test is described as follows: Septoria tritici (leaf blotch) growth inhibition in nutrient broth. It is filed as cell-based. Particulars: Zymoseptoria tritici, 72 hrs, read-out: control of fungal infection, Septoria tritici.
For the next test, the system named is Aedes aegypti. The test is described as follows: Aedes aegypti (Yellow fever mosquito) larvae test. It counts as in vivo. As to conditions: 48 h.
The subject of the next test is Pyricularia oryzae. The test is described as follows: whole plant or invertebrate. It counts as in vivo. As to conditions: foliar, 96 h.
The test system of a further test is Tetranychus urticae. Particulars: foliar, 192 h, read-out: control of Tetranychus urticae.
The test system of test [1] is Puccinia recondita f.sp. tritici. The test is described as follows: Puccinia recondita f.sp. tritici (wheat brown rust) leaf disk assay. It counts as in vivo. As to conditions: foliar, 216 h, preventive, nine days after inoculation, read-out: control of fungal infection, Puccinia recondita f.sp. tritici.
Another test concerns Spodoptera littoralis. The test is described as follows: Spodoptera littoralis (Egyptian cotton leafworm) cotton leaf disc test. Particulars: in Gossypium hirsutum, foliar, 72 h, read-out: control of Spodoptera littoralis.
The next test deals with Plutella xylostella. The test is described as follows: Plutella xylostella (Diamond back moth) artificial diet test. As to conditions: 120 h, read-out: control of Plutella xylostella.
In another test the test system is Pythium ultimum. The test is described as follows: Pythium ultimum (Damping off) growth inhibition in potato dextrose broth. It counts as cell-based. As to conditions: Globisporangium ultimum, 48 hours, read-out: control of fungal infection, Pythium ultimum.
Test [2] relates to Erysiphe graminis f.sp. tritici. The test is described as follows: Erysiphe graminis f.sp. tritici (wheat powdery mildew) leaf disk assay. It is filed as in vivo. As to conditions: Blumeria graminis, foliar, 96 h, preventive, four days after inoculation, read-out: control of fungal infection, Erysiphe graminis fsp. tritici.
A further test concerns Phytophthora infestans. The test is described as follows: whole plant or invertebrate. It is filed as in vivo. Particulars: foliar, 96 h, read-out: control of fungal infection, Phytophthora infestans.
Another test has as its system Plasmopara viticola. The test is described as follows: Plasmopara viticola (downy mildew of grapevine) leaf disk assay. It counts as in vivo. As to conditions: foliar, 168 h, preventive, seven days after inoculation, read-out: control of fungal infection, Plasmopara viticola.
Where [3] appears, read: read-out: control of fungal infection, Pyricularia oryzae (at least 80% list).
The mark [4] stands for this setting: read-out: control of fungal infection, Pyricularia oryzae (at least 60% list).

Read-outs that look alike come from different tables or passages of the source. A value given as a limit tells only on which side of the number the result lay.

In the case of `CCc1ncnc(N2C3CCC2CC(=CCOc2ccc(C)nc2)C3)c1Cl` [Example 3.14], the pest or weed control at 200 ppm (in the test on Heliothis virescens; in the test on Myzus persicae; in the test with Pyricularia oryzae (setting [3]); in the test on Tetranychus urticae; in test [1]; with Spodoptera littoralis) was at least 80% in each case. In addition, in the test with Septoria tritici, the inhibition of growth at 200 ppm is at least 60%. In the test with Aedes aegypti, the pest or weed control at 2 ppm is at least 80%.

With `Fc1ccc(F)c(CON=C2CC3CCC(C2)N3c2ncnc3ccccc23)c1F` [Example 5.134], the pest or weed control at 200 ppm is at least 80% with Heliothis virescens, at least 60% in the test on Pyricularia oryzae (setting [4]), at least 80% in the test on Plutella xylostella and at least 80% in test [1]. The inhibition of growth at 200 ppm in the test with Septoria tritici and with Pythium ultimum was at least 60% throughout. This compound yielded a pest or weed control at 2 ppm in the test with Aedes aegypti of at least 80%.

In the case of `Fc1ccccc1CON=C1CC2CCC(C1)N2c1ncnc2sccc12` [Example 5.211], the pest or weed control at 200 ppm (in the test with Heliothis virescens; in [2]; with Plutella xylostella; in [1]; in the test with Phytophthora infestans; in the test on Spodoptera littoralis) was at least 80% each time. The pest or weed control at 2 ppm in the test on Aedes aegypti was at least 80%.

For `CCc1ncnc(N2C3CCC2CC(=Cc2ccc(OC)cc2)C3)c1Cl` [Example 3.9], the pest or weed control at 200 ppm in the test with Heliothis virescens was at least 80%; in the test on Pyricularia oryzae (setting [4]), at least 60%; in the test with Pyricularia oryzae (setting [3]), at least 80%; in the test with Plutella xylostella, at least 80%; with Tetranychus urticae it was at least 80%; in the test on Spodoptera littoralis, at least 80%. Also, in the test with Aedes aegypti, the pest or weed control at 2 ppm was at least 80%.

Regarding `Fc1cc(Br)ccc1CON=C1CC2CCC(C1)N2c1ncnc2sccc12` [Example 5.232], the pest or weed control at 200 ppm is at least 80% in the test with Myzus persicae; at least 80% in test [2]; at least 60% in the test on Pyricularia oryzae (setting [4]); at least 80% in the test with Plutella xylostella; at least 80% in test [1]; at least 80% in the test with Phytophthora infestans. Further, the pest or weed control at 200 ppm in the test on Spodoptera littoralis was at least 80%. Moreover, the pest or weed control at 2 ppm in the test on Aedes aegypti was at least 80%. Further, the inhibition of growth at 200 ppm with Pythium ultimum is at least 60%.

On to `C(=C1CC2CCC(C1)N2c1ncnc2sccc12)c1ccccc1` [Example 3.27], for which the pest or weed control at 200 ppm with Heliothis virescens was at least 80%; with Pyricularia oryzae (setting [4]), at least 60%; in the test on Pyricularia oryzae (setting [3]) it was at least 80%; with Plutella xylostella it was at least 80%; with Plasmopara viticola, at least 80%; with Tetranychus urticae it was at least 80%. The pest or weed control at 200 ppm (in test [1]; in the test with Phytophthora infestans; in the test on Spodoptera littoralis) was at least 80% in each case. In the test with Aedes aegypti, the pest or weed control at 2 ppm was at least 80%.

`CCc1ncnc(N2C3CCC2CC(=NOCc2ccc(F)cc2)C3)c1Cl` [Example 5.30]: the pest or weed control at 200 ppm with Heliothis virescens was at least 80%; with Myzus persicae, at least 80%; in test [2] it was at least 80%; in the test on Pyricularia oryzae (setting [4]), at least 60%; with Plutella xylostella it was at least 80%; in test [1], at least 80%. Also, in the test with Spodoptera littoralis, the pest or weed control at 200 ppm is at least 80%. This compound also displayed a pest or weed control at 2 ppm with Aedes aegypti of at least 80%.

On to `Cc1ccc(C=C2CC3CCC(C2)N3c2ncnc3sccc23)cc1` [Example 3.32], for which the pest or weed control at 200 ppm is at least 80% in the test with Heliothis virescens; at least 80% in the test with Myzus persicae; at least 60% in the test with Pyricularia oryzae (setting [4]); at least 80% with Pyricularia oryzae (setting [3]); at least 80% in the test with Plutella xylostella; at least 80% with Plasmopara viticola. The pest or weed control at 200 ppm (in the test on Tetranychus urticae; in test [1]; in the test on Spodoptera littoralis) was at least 80% each time. Besides, the pest or weed control at 2 ppm in the test with Aedes aegypti was at least 80%.

As for `Fc1cccc(F)c1CON=C1CC2CCC(C1)N2c1ncnc2sccc12` [Example 5.215], the pest or weed control at 200 ppm was at least 80% in the test with Myzus persicae; at least 80% in [2]; at least 60% in the test with Pyricularia oryzae (setting [4]); at least 80% in the test on Pyricularia oryzae (setting [3]); at least 80% with Plutella xylostella; at least 80% with Plasmopara viticola. Moreover, the pest or weed control at 200 ppm (in the test on Tetranychus urticae; in [1]; in the test on Spodoptera littoralis) was at least 80% in each case. In the test with Aedes aegypti, this compound yielded a pest or weed control at 2 ppm of at least 80%.

Regarding `CCc1ncnc(N2C3CCC2CC(CC(=O)OC)C3)c1Cl` (stereo not drawn) [Example 7.36], the pest or weed control at 200 ppm in the test with Heliothis virescens, in the test with Plutella xylostella and with Tetranychus urticae was at least 80% in each case. Also, the inhibition of growth at 200 ppm in the test with Septoria tritici was at least 60%. In addition, the pest or weed control at 2 ppm with Aedes aegypti is at least 80%.

Consider `FC(F)(F)c1ccc(CON=C2CC3CCC(C2)N3c2ncnc3ccccc23)cc1` [Example 5.128], for which the pest or weed control at 200 ppm in the test on Heliothis virescens is at least 80%; in the test with Pyricularia oryzae (setting [4]), at least 60%; in the test on Pyricularia oryzae (setting [3]), at least 80%; in the test with Plutella xylostella it was at least 80%; in the test on Tetranychus urticae, at least 80%; in test [1], at least 80%. In addition, the inhibition of growth at 200 ppm in the test on Septoria tritici and in the test on Pythium ultimum was at least 60% in each case. For the same compound, in the test on Aedes aegypti, the pest or weed control at 2 ppm is at least 80%.

On to `CCc1ncnc(N2C3CCC2CC(=Cc2ccc(C)cc2)C3)c1Cl` [Example 3.7], for which the pest or weed control at 200 ppm (in the test on Heliothis virescens; in the test with Plutella xylostella; in the test on Tetranychus urticae; in test [1]; in the test on Spodoptera littoralis) was at least 80% in each case. For the same compound, the pest or weed control at 2 ppm with Aedes aegypti was at least 80%.

With `Fc1cc(C(F)(F)F)ccc1CON=C1CC2CCC(C1)N2c1ncnc2ccccc12` [Example 5.135], the pest or weed control at 200 ppm with Heliothis virescens is at least 80%; in the test with Pyricularia oryzae (setting [4]) it was at least 60%; in the test with Pyricularia oryzae (setting [3]) it was at least 80%; with Plutella xylostella, at least 80%; with Tetranychus urticae, at least 80%; in test [1] it was at least 80%. Besides, the inhibition of growth at 200 ppm with Septoria tritici and in the test with Pythium ultimum was at least 60% throughout. In the test on Aedes aegypti, this compound displayed a pest or weed control at 2 ppm of at least 80%.

As to `Clc1ccc(C=C2CC3CCC(C2)N3c2ncnc3sccc23)cc1` [Example 3.20], the pest or weed control at 200 ppm in the test on Heliothis virescens was at least 80%; with Pyricularia oryzae (setting [4]), at least 60%; in the test with Pyricularia oryzae (setting [3]) it was at least 80%; in the test on Plutella xylostella, at least 80%; in the test with Plasmopara viticola it was at least 80%; in the test with Tetranychus urticae, at least 80%. For the same compound, the pest or weed control at 200 ppm (in test [1]; in the test on Spodoptera littoralis) was at least 80% in each case. In the test on Aedes aegypti, this compound gave a pest or weed control at 2 ppm of at least 80%.
